In PubChem BioAssay AID256 (DTP/NCI, 2004):
Several values for one entry are separate records, joined by “and”; a condition that tells them apart may be missing. Equal values may be shown once. Toxic doses and inconclusive results are not listed.

Test system: CD2F1 mice, L1210 leukemia ip, survival T/C
Assay: NCI In Vivo Anticancer Drug Screen. Data for tumor model L1210 Leukemia (intraperitoneal) in CD2F1 (CDF1) mice
Conditions: endpoint: mean survival time, higher = longer survival
Outline: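 Implant tumor; dose compound or vehicle; measure endpoint in both groups; report treated divided by control.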

[1] = dose: 100.0 mg/kg/injection, schedule: Q01DX001 (ip), vehicle: saline with Tween-80
[2] = dose: 200.0 mg/kg/injection, schedule: Q01DX001 (ip), vehicle: saline with Tween-80
[3] = dose: 400.0 mg/kg/injection, schedule: Q01DX001 (ip), vehicle: saline with Tween-80
[4] = dose: 12.5 mg/kg/injection, schedule: Q01DX005 (ip), vehicle: water
[5] = dose: 25.0 mg/kg/injection, schedule: Q01DX005 (ip), vehicle: water
[6] = dose: 50.0 mg/kg/injection, schedule: Q01DX005 (ip), vehicle: water
[7] = dose: 100.0 mg/kg/injection, schedule: Q01DX005 (ip), vehicle: water
[8] = dose: 200.0 mg/kg/injection, schedule: Q01DX005 (ip), vehicle: water
[9] = dose: 12.5 mg/kg/injection, schedule: Q01DX009 (ip), vehicle: saline
[10] = dose: 25.0 mg/kg/injection, schedule: Q01DX009 (ip), vehicle: saline
[11] = dose: 50.0 mg/kg/injection, schedule: Q01DX009 (ip), vehicle: saline
[12] = dose: 100.0 mg/kg/injection, schedule: Q01DX009 (ip), vehicle: saline
[13] = dose: 200.0 mg/kg/injection, schedule: Q01DX009 (ip), vehicle: saline
[14] = dose: 400.0 mg/kg/injection, schedule: Q01DX009 (ip), vehicle: saline
[15] = dose: 100.0 mg/kg/injection, schedule: Q04DX003 (ip), vehicle: saline with Tween-80
[16] = dose: 200.0 mg/kg/injection, schedule: Q04DX003 (ip), vehicle: saline with Tween-80
[17] = dose: 400.0 mg/kg/injection, schedule: Q04DX003 (ip), vehicle: saline with Tween-80
[18] = dose: 100.0 mg/kg/injection, schedule: Q01DX001 (ip), vehicle: saline
[19] = dose: 200.0 mg/kg/injection, schedule: Q01DX001 (ip), vehicle: saline
[20] = dose: 400.0 mg/kg/injection, schedule: Q01DX001 (ip), vehicle: saline
[21] = dose: 100.0 mg/kg/injection, schedule: Q01DX009 (ip), vehicle: saline with Tween-80
[22] = dose: 200.0 mg/kg/injection, schedule: Q01DX009 (ip), vehicle: saline with Tween-80
[23] = dose: 400.0 mg/kg/injection, schedule: Q01DX009 (ip), vehicle: saline with Tween-80

COC(=O)C1(C)CCCC2(C)C3CCC(C)(CCO)CC3C(O)CC12 (stereo unspecified)
T/C (dose: 100.0 mg/kg/injection, schedule: Q01DX001 (ip), vehicle: saline sonified): 102 % of control
T/C [1]: 96 % of control
T/C (dose: 200.0 mg/kg/injection, schedule: Q01DX001 (ip), vehicle: saline sonified): 101 % of control
T/C [2]: 101 % of control
T/C (dose: 400.0 mg/kg/injection, schedule: Q01DX001 (ip), vehicle: saline sonified): 93 % of control
T/C [3]: 105 % of control

Nc1ccccc1CCCC(N)C(=O)O (stereo unspecified)
T/C [1]: 97 % of control
T/C [2]: 100 % of control
T/C [3]: 93 % of control

O=C(O)CNC1CCCC1
T/C [1]: 97 % of control
T/C [2]: 100 % of control
T/C [3]: 93 % of control

c1ccc(CCNc2ncnc3nc[nH]c23)cc1
T/C (dose: 6.25 mg/kg/injection, schedule: Q01DX005 (ip), vehicle: water): 94 % of control
T/C [4]: 96 % of control
T/C [5]: 96 % of control
T/C [6]: 97 % of control
T/C [7]: 92 % of control
T/C [8]: 111 % of control

Nc1nc([S-])c2[nH]cnc2n1.[Cl-].[Cl-].[H+].[Pd+2].[Pd+2].[Pd+2]
T/C (dose: 3.13 mg/kg/injection, schedule: Q04DX003 (ip), vehicle: saline with Tween-80): 124 % of control
T/C (dose: 6.25 mg/kg/injection, schedule: Q04DX003 (ip), vehicle: saline with Tween-80): 164 % of control
T/C (dose: 100.0 mg/kg/injection, schedule: Q04DX003 (ip), vehicle: suspension in saline): 114 % of control and 91 % of control

NC(=O)c1n[nH]c(C2OC(COP(=O)(O)O)C(O)C2O)n1 (stereo unspecified)
T/C [4]: 100 % of control
T/C [5]: 100 % of control
T/C [6]: 96 % of control
T/C [7]: 97 % of control
T/C [8]: 96 % of control

O=C1/C(=C/c2ccc([N+](=O)[O-])cc2)CCc2ccccc21
T/C (dose: 12.5 mg/kg/injection, schedule: Q01DX009 (ip), vehicle: Klucel (hydroxypropylcellulose) (HPC)): 97 % of control
T/C (dose: 25.0 mg/kg/injection, schedule: Q01DX009 (ip), vehicle: Klucel (hydroxypropylcellulose) (HPC)): 96 % of control
T/C (dose: 50.0 mg/kg/injection, schedule: Q01DX009 (ip), vehicle: Klucel (hydroxypropylcellulose) (HPC)): 94 % of control
T/C (dose: 100.0 mg/kg/injection, schedule: Q01DX009 (ip), vehicle: Klucel (hydroxypropylcellulose) (HPC)): 92 % of control
T/C (dose: 200.0 mg/kg/injection, schedule: Q01DX009 (ip), vehicle: Klucel (hydroxypropylcellulose) (HPC)): 91 % of control

CC1OC(OC2CC(O)(C(=O)CO)Cc3c(O)c4c(c(O)c32)C(=O)c2ccccc2C4=O)CC(N)C1O (stereo unspecified)
T/C (dose: 0.03 mg/kg/injection, schedule: Q01DX009 (ip), vehicle: water): 114 % of control
T/C (dose: 0.13 mg/kg/injection, schedule: Q01DX009 (ip), vehicle: water): 151 % of control
T/C (dose: 0.25 mg/kg/injection, schedule: Q01DX009 (ip), vehicle: water): 175 % of control
T/C (dose: 1.0 mg/kg/injection, schedule: Q01DX009 (ip), vehicle: water): 102 % of control

COC(=O)C(N)Cc1ccc(O)c(O)c1 (stereo unspecified)
T/C [9]: 101 % of control and 107 % of control
T/C [10]: 101 % of control and 107 % of control
T/C [11]: 95 % of control and 103 % of control
T/C [12]: 94 % of control and 103 % of control and 107 % of control
T/C [13]: 113 % of control and 101 % of control and 110 % of control
T/C [14]: 117 % of control and 110 % of control (2×)
T/C (dose: 800.0 mg/kg/injection, schedule: Q01DX009 (ip), vehicle: saline): 116 % of control and 123 % of control

C=C1C=C(C)CC(C)(C)C1 (tested in a mixture with another compound)
T/C [12]: 101 % of control
T/C [15]: 102 % of control
T/C [13]: 101 % of control
T/C [16]: 100 % of control
T/C [14]: 101 % of control
T/C [17]: 102 % of control

CC(C)(C)S(=O)O
T/C [18]: 101 % of control
T/C [19]: 94 % of control
T/C [20]: 100 % of control

COc1cc2c(cc1OC)C1CC(O)C3CCCCC3N1CC2 (stereo unspecified)
T/C [15]: 93 % of control
T/C [16]: 93 % of control

NNC(=O)Nc1ccccc1
T/C (dose: 6.25 mg/kg/injection, schedule: Q01DX001 (ip), vehicle: saline with Tween-80): 102 % of control
T/C (dose: 12.5 mg/kg/injection, schedule: Q01DX001 (ip), vehicle: saline with Tween-80): 102 % of control
T/C (dose: 25.0 mg/kg/injection, schedule: Q01DX001 (ip), vehicle: saline with Tween-80): 97 % of control

COc1ccc(/C=C2/Cc3cccc4c([N+](=O)[O-])ccc2c34)cc1
T/C [1]: 89 % of control
T/C [2]: 86 % of control
T/C [3]: 102 % of control

O=C1c2ccccc2C(=O)N1CNCCCNCN1C(=O)c2ccccc2C1=O
T/C [21]: 98 % of control
T/C [22]: 98 % of control
T/C [23]: 96 % of control

CCCCOC(=O)COc1ccc(F)cc1F
T/C (dose: 100.0 mg/kg/injection, schedule: Q04DX002 (ip), vehicle: saline with Tween-80): 95 % of control
T/C (dose: 200.0 mg/kg/injection, schedule: Q04DX002 (ip), vehicle: saline with Tween-80): 100 % of control
T/C (dose: 400.0 mg/kg/injection, schedule: Q04DX002 (ip), vehicle: saline with Tween-80): 92 % of control

O=S(=O)(CS(=O)(=O)Nc1ccccc1)Nc1ccccc1
T/C [15]: 109 % of control

CCCCCCCCCCC/C=C\C(C#N)C(=O)OCC (stereo unspecified)
T/C [15]: 103 % of control
T/C [16]: 108 % of control
T/C [17]: 87 % of control

CCCCCCCCCCCCS(=O)(=O)O
T/C [15]: 119 % of control
T/C [16]: 119 % of control

O=C(N/N=C/Cc1ccccc1)c1cc2ccccc2cc1O
T/C [21]: 101 % of control
T/C [22]: 95 % of control
T/C [23]: 108 % of control

NC(=O)C(CC(=O)OCc1ccccc1)NC(=O)OCc1ccccc1 (stereo unspecified)
T/C (dose: 100.0 mg/kg/injection, schedule: Q04DX003 (ip), vehicle: saline + alcohol): 97 % of control
T/C (dose: 200.0 mg/kg/injection, schedule: Q04DX003 (ip), vehicle: saline + alcohol): 97 % of control
T/C (dose: 400.0 mg/kg/injection, schedule: Q04DX003 (ip), vehicle: saline + alcohol): 97 % of control

CN1C(=O)C2(Cc3cn(C45CC67SSC(CO)(C(=O)N6C4Nc4ccccc45)N(C)C7=O)c4ccccc34)SSC1(CO)C(=O)N2C (stereo unspecified)
T/C (dose: 0.31 mg/kg/injection, schedule: Q01DX009 (ip), vehicle: Klucel (hydroxypropylcellulose) (HPC)): 93 % of control
T/C (dose: 0.62 mg/kg/injection, schedule: Q01DX009 (ip), vehicle: Klucel (hydroxypropylcellulose) (HPC)): 100 % of control
T/C (dose: 1.25 mg/kg/injection, schedule: Q01DX009 (ip), vehicle: Klucel (hydroxypropylcellulose) (HPC)): 100 % of control

Cc1csc2ncnc(Cl)c12
T/C [1]: 101 % of control
T/C [2]: 97 % of control
T/C [3]: 97 % of control

Oc1cc(O)c2c(c1)O[C@H](c1ccc(O)c(O)c1)[C@@H](O)C2
T/C [18]: 101 % of control
T/C [19]: 101 % of control
T/C [20]: 98 % of control

CCCOCC(O)CNCCN (stereo unspecified)
T/C [9]: 96 % of control and 101 % of control
T/C [10]: 94 % of control and 98 % of control
T/C [11]: 93 % of control and 94 % of control
T/C [12]: 93 % of control and 96 % of control

NC1(C(=O)O)CCCC1.[Pd]
T/C [18]: 100 % of control
T/C [19]: 96 % of control

Cc1nccc(N)n1
T/C [1]: 89 % of control
T/C [2]: 90 % of control
T/C [3]: 90 % of control

O=C(Nc1ccc(C2=NCCN2)cc1)c1ccc(C(=O)Nc2ccc(C3=NCCN3)cc2)c(NC(=O)c2ccc(C(=O)Nc3cc(C(=O)Nc4ccc(C5=NCCN5)cc4)ccc3C(=O)Nc3ccc(C4=NCCN4)cc3)cc2)c1
T/C (dose: 12.5 mg/kg/injection, schedule: Q01DX008 (iv), vehicle: other): 101 % of control
T/C (dose: 25.0 mg/kg/injection, schedule: Q01DX008 (iv), vehicle: other): 101 % of control
T/C (dose: 50.0 mg/kg/injection, schedule: Q01DX008 (iv), vehicle: other): 103 % of control

O=[N+]([O-])c1cccc(S(=O)(=O)O)c1.[Fe]
T/C [11]: 103 % of control
T/C [12]: 91 % of control

CCOc1ccc(N2C(=O)CC(Sc3ccccc3N)C2=O)cc1 (stereo unspecified)
T/C (dose: 100.0 mg/kg/injection, schedule: Q01DX009 (ip), vehicle: acetone): 93 % of control
T/C (dose: 200.0 mg/kg/injection, schedule: Q01DX009 (ip), vehicle: acetone): 104 % of control
T/C (dose: 400.0 mg/kg/injection, schedule: Q01DX009 (ip), vehicle: acetone): 112 % of control

C=NNC(=O)c1ccncc1
T/C [21]: 100 % of control
T/C [22]: 101 % of control
T/C [23]: 95 % of control
